Numbered stars: 1 amine (or outer) side, 2 acyl side, 3 side chain; on linkers, the order of the positions; unused ones are H or OH. Square brackets hold non-standard residues; d marks the D form. Peptide text beside a SMILES is read from it. * marks the point of attachment. Ala(6-iPr-benzothiazol-2-yl) = CC(C)c1ccc2nc(C[C@H](N)C(=O)O)sc2c1; Gly(piperidin-4-yl) = N[C@H](C(=O)O)C1CCNCC1; Abu(4,4,4-F3) = N[C@@H](CC(F)(F)F)C(=O)O; Cyclopropanecarbonyl = O=C(C1CC1)*; Gly(cPent) = N[C@H](C(=O)O)C1CCCC1; tBuAla = CC(C)(C)C[C@H](N)C(=O)O; Cha = N[C@@H](CC1CCCCC1)C(=O)O; Chg = N[C@H](C(=O)O)C1CCCCC1; Isovaleryl = CC(C)CC(=O)*; Isobutyryl = CC(C)C(=O)*; Abu = CC[C@H](N)C(=O)O; CO = O=C([*:1])[*:2]; Propionyl = CCC(=O)*; Butyryl = CCCC(=O)*; Moc = COC(=O)*; For = O=C*
biological target: DCN1 (Homo sapiens (Human), UniProt Q96GG9); test: Competitive FP binding assay; details: bounds given in μM; read-out: Binding affinity to DCN1 (IC50)
In short: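 FP competition with DCN1 in 100 mM phosphate pH 6.5, 0.02% Tween-20, 2% DMSO, probe 5 nM final. Equilibrated 30 min at room temperature with shaking. DCN1 was His6-tagged (uncleaved), expressed in E. coli Rosetta2 and purified by Ni-NTA and gel filtration.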

Chain of DCN1 (Q96GG9 58-259): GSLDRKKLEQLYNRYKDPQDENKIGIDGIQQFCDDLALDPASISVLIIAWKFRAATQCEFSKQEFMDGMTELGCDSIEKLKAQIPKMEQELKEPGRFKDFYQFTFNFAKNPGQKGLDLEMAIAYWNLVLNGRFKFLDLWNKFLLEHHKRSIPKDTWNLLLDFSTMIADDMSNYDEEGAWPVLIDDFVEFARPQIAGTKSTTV

IC50 [µM]	Structure (SMILES)
> 10	CCC(=O)N[C@@H](Cc1nc2ccc(Cl)cc2s1)CN(Cc1ccccc1)Cc1ccccc1 [Example 259]
> 5	CCC(=O)N[C@H](CNC(=O)[C@H](N)C1CCCC1)Cc1nc2ccc(Cl)cc2s1 [Example 261]
> 10	CCC(=O)N[C@@H](Cc1nc2ccc(C(C)C)cc2s1)C(=O)N[C@H](C(=O)NCCN1CCOCC1)C1CCNCC1 [Example 265]
> 10	CCC(=O)N[C@H](CNC(=O)C1(N)CCC(C)(C)CC1)Cc1nc2ccc(C(C)C)cc2s1 [Example 269]
> 10	CCC(=O)N[C@H](CNC(=O)[C@H]1CCCCN1)Cc1nc2ccc(C(C)C)cc2s1 [Example 270]
> 10	CC[C@H](C)[C@H](NC(=O)[C@@H](N)Cc1nc2ccc(C(C)C)cc2s1)C(=O)N[C@@H](CCCCN)C(=O)N[C@@H](CC(C)C)C(N)=O [Example 272] (H-[Ala(6-iPr-benzothiazol-2-yl)]IKL-NH2)
> 10	CCC(=O)N[C@@H](Cc1nc2ccc(C(C)C)cc2s1)C(=O)N[C@H](C(=O)N[C@@H](CCCCN)C(=O)N[C@@H](CC(C)C)C(N)=O)C1CCNCC1 [Example 288] (Propionyl-[Ala(6-iPr-benzothiazol-2-yl)][Gly(piperidin-4-yl)]KL-NH2)

same assay, conditions: read-out: Binding affinity to DCN1 (IC50 (nM))

IC50 [µM]	Structure (SMILES)
3.45	CCC(=O)N[C@H](CNC(=O)Cc1ccccn1)Cc1nc2ccc(Cl)cc2s1 [Example 257]
3.92	CCC(=O)N[C@H](CNC(=O)Nc1ccccc1)Cc1nc2ccc(Cl)cc2s1 [Example 258]
1.2	CCC(=O)N[C@H](CNC(=O)[C@@H](N)C1CCCC1)Cc1nc2ccc(Cl)cc2s1 [Example 260]
0.155	CC(C)c1ccc2nc(C[C@H](NC(=O)C3CC3)C(=O)N[C@H](CN)C3CCCCC3)sc2c1 [Example 262]
0.139	CC(C)C(=O)N[C@@H](Cc1nc2ccc(C(C)C)cc2s1)C(=O)N[C@H](CN)C1CCCCC1 [Example 263]
1.5	CCC(=O)N[C@@H](Cc1nc2ccc(C(C)C)cc2s1)C(=O)N[C@H](C(=O)NCCN1CCOCC1)C1CCN(C(=O)OC(C)(C)C)CC1 [Example 264]
1.21	CCC(=O)N[C@@H](Cc1nc2ccc(C(C)C)cc2s1)C(=O)N[C@H](CNC(=O)c1ncc[nH]1)C1CCCCC1 [Example 268]
0.122	CC[C@H](C)[C@H](NC(=O)[C@H](Cc1nc2ccc(C(C)C)cc2s1)NC=O)C(=O)N[C@@H](CCCCN)C(=O)N[C@@H](CC(C)C)C(N)=O [Example 271] (For-[Ala(6-iPr-benzothiazol-2-yl)]IKL-NH2)
0.051	CCC(=O)N[C@@H](Cc1nc2ccc(C(C)C)cc2s1)C(=O)N[C@H](C(=O)N[C@@H](CCCCN)C(=O)N[C@@H](CC(C)C)C(N)=O)[C@@H](C)CC [Example 273] (Propionyl-[Ala(6-iPr-benzothiazol-2-yl)]IKL-NH2)
0.0825	CC[C@H](C)[C@H](NC(=O)[C@H](Cc1nc2ccc(C(C)C)cc2s1)NC(=O)C1CC1)C(=O)N[C@@H](CCCCN)C(=O)N[C@@H](CC(C)C)C(N)=O [Example 274] (Cyclopropanecarbonyl-[Ala(6-iPr-benzothiazol-2-yl)]IKL-NH2)
0.0778	CC[C@H](C)[C@H](NC(=O)[C@H](Cc1nc2ccc(C(C)C)cc2s1)NC(=O)C(C)C)C(=O)N[C@@H](CCCCN)C(=O)N[C@@H](CC(C)C)C(N)=O [Example 275] (Isobutyryl-[Ala(6-iPr-benzothiazol-2-yl)]IKL-NH2)
0.109	CCCC(=O)N[C@@H](Cc1nc2ccc(C(C)C)cc2s1)C(=O)N[C@H](C(=O)N[C@@H](CCCCN)C(=O)N[C@@H](CC(C)C)C(N)=O)[C@@H](C)CC [Example 276] (Butyryl-[Ala(6-iPr-benzothiazol-2-yl)]IKL-NH2)
0.517	CC[C@H](C)[C@H](NC(=O)[C@H](Cc1nc2ccc(C(C)C)cc2s1)NC(=O)CC(C)C)C(=O)N[C@@H](CCCCN)C(=O)N[C@@H](CC(C)C)C(N)=O [Example 277] (Isovaleryl-[Ala(6-iPr-benzothiazol-2-yl)]IKL-NH2)
0.0682	CC[C@H](C)[C@H](NC(=O)[C@H](Cc1nc2ccc(C(C)C)cc2s1)NC(=O)NC)C(=O)N[C@@H](CCCCN)C(=O)N[C@@H](CC(C)C)C(N)=O [Example 278] ({NHMe-CO}-[Ala(6-iPr-benzothiazol-2-yl)]IKL-NH2)
0.217	CC[C@H](C)[C@H](NC(=O)[C@H](Cc1nc2ccc(C(C)C)cc2s1)NC(=O)OC)C(=O)N[C@@H](CCCCN)C(=O)N[C@@H](CC(C)C)C(N)=O [Example 279] (Moc-[Ala(6-iPr-benzothiazol-2-yl)]IKL-NH2)
0.0694	CCC(=O)N[C@@H](Cc1nc2ccc(C(C)C)cc2s1)C(=O)N[C@@H](C)C(=O)N[C@@H](CCCCN)C(=O)N[C@@H](CC(C)C)C(N)=O [Example 280] (Propionyl-[Ala(6-iPr-benzothiazol-2-yl)]AKL-NH2)
0.0374	CCC(=O)N[C@@H](Cc1nc2ccc(C(C)C)cc2s1)C(=O)N[C@@H](CC)C(=O)N[C@@H](CCCCN)C(=O)N[C@@H](CC(C)C)C(N)=O [Example 281] (Propionyl-[Ala(6-iPr-benzothiazol-2-yl)][Abu]KL-NH2)
0.072	CCC(=O)N[C@@H](Cc1nc2ccc(C(C)C)cc2s1)C(=O)N[C@H](C(=O)N[C@@H](CCCCN)C(=O)N[C@@H](CC(C)C)C(N)=O)C(C)C [Example 282] (Propionyl-[Ala(6-iPr-benzothiazol-2-yl)]VKL-NH2)
0.083	CCC(=O)N[C@@H](Cc1nc2ccc(C(C)C)cc2s1)C(=O)N[C@@H](CC(C)(C)C)C(=O)N[C@@H](CCCCN)C(=O)N[C@@H](CC(C)C)C(N)=O [Example 283] (Propionyl-[Ala(6-iPr-benzothiazol-2-yl)][tBuAla]KL-NH2)
0.154	CCC(=O)N[C@@H](Cc1nc2ccc(C(C)C)cc2s1)C(=O)N[C@@H](CC(F)(F)F)C(=O)N[C@@H](CCCCN)C(=O)N[C@@H](CC(C)C)C(N)=O [Example 284] (Propionyl-[Ala(6-iPr-benzothiazol-2-yl)][Abu(4,4,4-F3)]KL-NH2)
< 0.1	CCC(=O)N[C@@H](Cc1nc2ccc(C(C)C)cc2s1)C(=O)N[C@H](C(=O)N[C@@H](CCCCN)C(=O)N[C@@H](CC(C)C)C(N)=O)C1CCCC1 [Example 285] (Propionyl-[Ala(6-iPr-benzothiazol-2-yl)][Gly(cPent)]KL-NH2)
0.0583	CCC(=O)N[C@@H](Cc1nc2ccc(C(C)C)cc2s1)C(=O)N[C@H](C(=O)N[C@@H](CCCCN)C(=O)N[C@@H](CC(C)C)C(N)=O)C1CCCCC1 [Example 286] (Propionyl-[Ala(6-iPr-benzothiazol-2-yl)][Chg]KL-NH2)
0.138	CCC(=O)N[C@@H](Cc1nc2ccc(C(C)C)cc2s1)C(=O)N[C@@H](CC1CCCCC1)C(=O)N[C@@H](CCCCN)C(=O)N[C@@H](CC(C)C)C(N)=O [Example 289] (Propionyl-[Ala(6-iPr-benzothiazol-2-yl)][Cha]KL-NH2)
0.0556	CCC(=O)N[C@@H](Cc1nc2ccc(C(C)C)cc2s1)C(=O)N[C@@H](Cc1ccccc1)C(=O)N[C@@H](CCCCN)C(=O)N[C@@H](CC(C)C)C(N)=O [Example 290] (Propionyl-[Ala(6-iPr-benzothiazol-2-yl)]FKL-NH2)
0.116	CCC(=O)N[C@@H](Cc1nc2ccc(C(C)C)cc2s1)C(=O)N[C@H](C(=O)N[C@@H](CCCCN)C(N)=O)C1CCCCC1 [Example 291]
